These results are taken from patent US20260193238A1, “PHARMACEUTICAL COMPOUNDS AS PARP7 AND/OR PARP1 INHIBITORS” (Duke Street Bio Limited, priority 2022, published 2026).

The target of the first assay is PARP1 (Homo sapiens, UniProt P09874). Kind of assay: PARP1 biochemical DELFIA assay (auto-PARylation). Particulars: Table 1.
Chain of PARP1 (P09874 whole entry): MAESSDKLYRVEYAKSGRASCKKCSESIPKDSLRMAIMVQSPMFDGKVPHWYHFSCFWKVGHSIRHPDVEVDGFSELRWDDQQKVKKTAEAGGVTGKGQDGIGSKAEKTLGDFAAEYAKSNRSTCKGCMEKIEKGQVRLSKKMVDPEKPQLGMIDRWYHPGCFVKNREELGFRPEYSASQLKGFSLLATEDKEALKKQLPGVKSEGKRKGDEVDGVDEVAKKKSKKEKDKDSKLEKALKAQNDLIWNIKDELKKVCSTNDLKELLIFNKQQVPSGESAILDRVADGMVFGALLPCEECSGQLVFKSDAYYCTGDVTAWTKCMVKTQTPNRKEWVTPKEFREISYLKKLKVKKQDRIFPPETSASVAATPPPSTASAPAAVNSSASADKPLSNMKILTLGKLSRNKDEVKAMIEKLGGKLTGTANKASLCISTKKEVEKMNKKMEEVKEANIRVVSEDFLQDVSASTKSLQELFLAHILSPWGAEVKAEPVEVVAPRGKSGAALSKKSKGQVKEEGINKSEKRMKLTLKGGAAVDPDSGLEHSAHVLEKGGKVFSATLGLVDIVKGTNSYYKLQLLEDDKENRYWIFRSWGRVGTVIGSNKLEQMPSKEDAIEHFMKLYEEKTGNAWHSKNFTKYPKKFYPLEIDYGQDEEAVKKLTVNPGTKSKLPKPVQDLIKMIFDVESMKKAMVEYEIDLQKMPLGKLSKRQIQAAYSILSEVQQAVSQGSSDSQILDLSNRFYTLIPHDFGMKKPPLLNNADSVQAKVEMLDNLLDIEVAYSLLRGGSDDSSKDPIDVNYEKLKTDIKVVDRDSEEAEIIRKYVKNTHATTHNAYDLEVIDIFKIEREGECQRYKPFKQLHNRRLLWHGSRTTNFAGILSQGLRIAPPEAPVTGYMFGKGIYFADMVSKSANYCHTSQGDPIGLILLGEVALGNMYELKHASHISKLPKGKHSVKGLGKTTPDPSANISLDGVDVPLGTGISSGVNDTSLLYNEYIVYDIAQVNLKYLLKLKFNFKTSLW
Experimental: Prior to assay, wells were washed 3×5 min in coating wash buffer.
% data was fitted to a non-linear regression equation (log inhibitor vs response-variable slope 4-parameters) to obtain IC50 values.
`O=C(CCN1CCCC(c2cc(C(F)(F)F)c(=O)[nH]n2)C1)N1CCN(c2ncc(F)cn2)CC1` (racemic) [Compound 17rac]: the IC50 (as a rule, the concentration needed to halve the response being measured) lay within 100 to 1000 nM.
In turn, `O=C(CCC1CCN(c2ncc(C(F)(F)F)cn2)CC1)N1CCCC(c2cc(C(F)(F)F)c(=O)[nH]n2)C1` (single isomer, unassigned) [Compound 4b] came in with an IC50 of 100 to 1000 nM.
Compound `CNC(=O)c1ccc(N2CCN(C(=O)CCN3CCCC(c4cc(C(F)(F)F)c(=O)[nH]n4)C3)CC2)nc1` (single isomer, unassigned) [Compound 28b] had a 50% inhibitory concentration (IC50) of 100 to 1000 nM.
Turning to `O=C(CN1CCCC(c2cc(C(F)(F)F)c(=O)[nH]n2)C1)N1CCN(c2ncc(C(F)(F)F)cn2)CC1` (single isomer, unassigned) [Compound 14a], the 50% inhibitory concentration (IC50) is 10 to 100 nM.

Staying with this assay, now noted: Table 1A.
Turning to `O=C(CN1CCCC1c1cc(C(F)(F)F)c(=O)[nH]n1)N1CCN(c2cnc(C(F)(F)F)cn2)CC1` (single isomer, unassigned) [Compound 45a], the IC50 was 10 to 100 nM.
The same measure, in the same setting: under `N#Cc1cnc(N2CCN(C(=O)CN3CCCC3c3cc(C(F)(F)F)c(=O)[nH]n3)CC2)nc1` (single isomer, unassigned) [Compound 36a] stands 10 to 100 nM.
`N#Cc1cnc(N2CCN(C(=O)CN3CCCC3c3c[nH]c(=O)c(C(F)(F)F)c3)CC2)nc1` (single isomer, unassigned) [Compound 76b]: the IC50 fell in the range of 100 to 1000 nM.
For the compound `CN(c1ncc(C(F)(F)F)cn1)C1CCN(C(=O)CN2CCCC2c2cc(C(F)(F)F)c(=O)[nH]n2)CC1` (single isomer, unassigned) [Compound 107b], the 50% inhibitory concentration (IC50) is greater than 10000 nM.
On to `N#Cc1cc(F)cnc1N1CCN(C(=O)CN2CCCC2c2cc(C(F)(F)F)c(=O)[nH]n2)CC1` (single isomer, unassigned) [Compound 146a], for which the IC50 is 100 to 1000 nM.
`CCc1cc(C2CCCN2CC(=O)N2CCN(c3ncc(C(F)(F)F)cn3)CC2)n[nH]c1=O` (single isomer, unassigned) [Compound 40b]: the IC50 was in the range of 1000 to 10000 nM.
With `O=C(CN1CCCC1c1cc(Cl)c(=O)[nH]n1)N1CCN(c2ncc(C(F)(F)F)cn2)CC1` (racemic) [Compound 68rac, 4-chloro-6-(1-(2-oxo-2-(4-(5-(trifluoromethyl)pyrimidin-2-yl)piperazin-1-yl)ethyl)pyrrolidin-2-yl)pyridazin-3(2H)-one], the IC50 lay within 100 to 1000 nM.
On the same count and under the same terms, as for `O=C(CN1CCCC1c1cc(C(F)(F)F)c(=O)[nH]n1)N1CC2(CCN(c3ncc(C(F)(F)F)cn3)CC2)C1` (single isomer, unassigned) [Compound 110b], the figure is 1000 to 10000 nM; as for `O=C(CN1CCCC1c1c[nH]c(=O)c(C(F)(F)F)n1)N1CCN(c2ncc(C(F)(F)F)cn2)CC1` (single isomer, unassigned) [Compound 84b, 5-(1-(2-oxo-2-(4-(5-(trifluoromethyl)pyrimidin-2-yl)piperazin-1-yl)ethyl)pyrrolidin-2-yl)-3-(trifluoromethyl)pyrazin-2(1H)-one], 1000 to 10000 nM.
As to `CNC(=O)c1ccc(N2CCN(C(=O)CN3CCC(c4cc(C(F)(F)F)c(=O)[nH]n4)CC3)CC2)cn1` [Compound 64], the IC50 is 100 to 1000 nM.
With `N#Cc1ccc(N2CCN(C(=O)CN3CCCC3c3c[nH]c(=O)c(C(F)(F)F)c3)CC2)nc1` (single isomer, unassigned) [Compound 77a], the IC50 is 1000 to 10000 nM.
Same read-out and setting: under `O=C(CN1CCCC1c1cc(C(F)(F)F)c(=O)[nH]n1)N1CCN(c2ccc(Cl)cn2)CC1` (single isomer, unassigned) [Compound 41b] stands 1000 to 10000 nM; under `O=C(CN1CCCC1c1cc(C(F)(F)F)c(=O)[nH]n1)N1CCN(c2ncc(F)cn2)CC1` (single isomer, unassigned) [Compound 43b], 1000 to 10000 nM; under `O=C(CN1CCCC1c1c[nH]c(=O)c(C(F)(F)F)n1)N1CCN(c2ncc(C(F)(F)F)cn2)CC1` (single isomer, unassigned) [Compound 84a, 5-(1-(2-oxo-2-(4-(5-(trifluoromethyl)pyrimidin-2-yl)piperazin-1-yl)ethyl)pyrrolidin-2-yl)-3-(trifluoromethyl)pyrazin-2(1H)-one], 1000 to 10000 nM.
Compound `O=C(CN1CCCC1c1cc(C(F)(F)F)c(=O)[nH]n1)N1CCN(c2ccc(F)cn2)CC1` (single isomer, unassigned) [Compound 46b] had an IC50 of 100 to 1000 nM.
In turn, `CNC(=O)c1ccc(N2CCN(C(=O)CN3CCC3c3cc(C(F)(F)F)c(=O)[nH]n3)CC2)cn1` (racemic) [Compound 53rac] registered an IC50 of 100 to 1000 nM.
`Cn1c(N2CCN(C(=O)CN3CCCC3c3cc(C(F)(F)F)c(=O)[nH]n3)CC2)nc2ccccc21` (single isomer, unassigned) [Compound 97a]: the IC50 lay within 100 to 1000 nM.
Still for that read-out and setting: under `N#Cc1cc(Cl)cnc1N1CCN(C(=O)CN2CCCC2c2cc(C(F)(F)F)c(=O)[nH]n2)CC1` (single isomer, unassigned) [Compound 144a] stands 10 to 100 nM.
Same read-out and setting: under `N#Cc1cc(C2CCCN2CC(=O)N2CC(Nc3ncc(C(F)(F)F)cn3)C2)n[nH]c1=O` (single isomer, unassigned) [Compound 123a] stands 10 to 100 nM; under `O=C(CN1CCCC1c1cc(C(F)(F)F)c(=O)[nH]n1)NC1CCN(c2ncc(C(F)(F)F)cn2)CC1` (single isomer, unassigned) [Compound 33b], 100 to 1000 nM; under `O=C(CN1CCCC1c1cc(C(F)(F)F)c(=O)[nH]n1)N1CCC2(CC1)CN(c1ncc(C(F)(F)F)cn1)C2` (single isomer, unassigned) [Compound 101b], 100 to 1000 nM.
The compound `Cn1c(N2CCN(C(=O)CN3CCCC3c3cc(C(F)(F)F)c(=O)[nH]n3)CC2)nc2ccc(F)cc21` (single isomer, unassigned) [Compound 119b] returned an IC50 greater than 10000 nM.
Turning to `CNC(=O)c1ccc(N2CCN(C(=O)CN3CCCC3c3cc(C(F)(F)F)c(=O)[nH]n3)CC2)cn1` (single isomer, unassigned) [Compound 37b], the IC50 lay within 1000 to 10000 nM.
`COC1CC(c2cc(C(F)(F)F)c(=O)[nH]n2)N(CC(=O)N2CCN(c3ncc(C(F)(F)F)cn3)CC2)C1` (single isomer, unassigned) [Compound 138cis1, 6-(4-methoxy-1-(2-oxo-2-(4-(5-(trifluoromethyl)pyrimidin-2-yl)piperazin-1-yl)ethyl)pyrrolidin-2-yl)-4-(trifluoromethyl)pyridazin-3(2H)-one] gave an IC50 of 10 to 100 nM.
Same read-out and setting: under `O=C(CN1CCCC1c1cc(C(F)(F)F)c(=O)[nH]n1)N1CCN(c2ncc(F)cn2)CC1` (single isomer, unassigned) [Compound 43a] stands 10 to 100 nM.
On to `O=C(CN1CCCC1c1cc(C(F)(F)F)c(=O)[nH]n1)N1CCN(c2ncc(Cl)cn2)CC1` (single isomer, unassigned) [Compound 35a], for which the IC50 lay in the range of 10 to 100 nM.
The same measure, in the same setting: under `O=C(CN1CCCC1c1cc(C(F)(F)F)c(=O)[nH]n1)N1CCN(c2nc3ccc(F)cn3n2)CC1` (single isomer, unassigned) [Compound 128a] stands no more than 10 nM.
Still for that read-out and setting: under `O=C(CN1CCCC1c1cc(C(F)(F)F)c(=O)[nH]n1)N1CCN(c2nc3ccc(Cl)cc3o2)CC1` (single isomer, unassigned) [Compound 85b] stands 1000 to 10000 nM; under `O=C(CN1CCCCC1c1cc(C(F)(F)F)c(=O)[nH]n1)N1CCN(c2ncc(C(F)(F)F)cn2)CC1` (single isomer, unassigned) [Compound 66a], 100 to 1000 nM.
